Values joined by “and” are separate entries in the source; they are usually repeats but may differ in a detail not shown here. Equal values may be shown once.
Test system: MCF7 multi-cell spheroids with HUVEC/MSC, viability
Experiment: Anticancer human tumor MCF7 cell line growth inhibition [IpAb];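 note: spheroids exposed to agents for seven days before readout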
Conditions: for viability, T/C: stronger effect = lower value
In short: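 Spheroids of 60% malignant cells, 25% HUVEC and 15% MSC were exposed to targeted agents combined with ipatasertib or abemaciclib. Doses started at or near clinical Cmax (10 microM when unknown) and fell in half-log steps.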

[1] = curve of first compound, second compound 0.1 µM
[2] = curve of first compound, second compound 0.316 µM
[3] = curve of first compound, second compound 1 µM

`C=CCn1c(=O)c2cnc(Nc3ccc(N4CCN(C)CC4)cc3)nc2n1-c1cccc(C(C)(C)O)n1` was tested, and the viability, T/C (compound 0.0316 µM) was 104% and 99.2%, the viability, T/C (compound 0.1 µM) was 98.9% and 108% and the viability, T/C (compound 0.316 µM) was 58.2% and 76.1%. The viability, T/C (compound 1 µM) was 34% and 44.2%, the viability, T/C (compound 3.16 µM) was 28.5% and 29.7% and the viability, T/C (compound 10 µM) was 28.2% and 33.6%. For the same compound, the IC50 (curve of compound) was 463 nM and 765 nM.
Compound `C=CCn1c(=O)c2cnc(Nc3ccc(N4CCN(C)CC4)cc3)nc2n1-c1cccc(C(C)(C)O)n1` + CC(C)NCC(C(=O)N1CCN(c2ncnc3c2C(C)CC3O)CC1)c1ccc(Cl)cc1 has an IC50 [1] of 543 nM, an IC50 [2] of 367 nM and an IC50 [3] of 169 nM. The IC50 (curve of first compound, second compound 3.16 µM) was < 31.6 nM, the IC50 (curve of first compound, second compound 10 µM) was < 31.6 nM and the viability, T/C (second compound 0.1 µM, first compound 0.0316 µM) was 89.1%. For the same compound, the viability, T/C (second compound 0.1 µM, first compound 0.1 µM) was 99.2%, the viability, T/C (second compound 0.1 µM, first compound 0.316 µM) was 67.4% and the viability, T/C (second compound 0.1 µM, first compound 1 µM) was 31.8%. It also gave a viability, T/C (second compound 0.1 µM, first compound 3.16 µM) of 26.3%, a viability, T/C (second compound 0.1 µM, first compound 10 µM) of 33% and a viability, T/C (second compound 0.316 µM, first compound 0.0316 µM) of 77.8%. The viability, T/C (second compound 0.316 µM, first compound 0.1 µM) was 80.9%, the viability, T/C (second compound 0.316 µM, first compound 0.316 µM) was 49.4% and the viability, T/C (second compound 0.316 µM, first compound 1 µM) was 37.4%. The viability, T/C (second compound 0.316 µM, first compound 3.16 µM) was 23.2%, the viability, T/C (second compound 0.316 µM, first compound 10 µM) was 27% and the viability, T/C (second compound 1 µM, first compound 0.0316 µM) was 64.2%. For the same compound, the viability, T/C (second compound 1 µM, first compound 0.1 µM) was 61.6%, the viability, T/C (second compound 1 µM, first compound 0.316 µM) was 36.5% and the viability, T/C (second compound 1 µM, first compound 1 µM) was 20.9%. The viability, T/C (second compound 1 µM, first compound 3.16 µM) was 17.7%, the viability, T/C (second compound 1 µM, first compound 10 µM) was 16.4% and the viability, T/C (second compound 3.16 µM, first compound 0.0316 µM) was 49.6%. It also gave a viability, T/C (second compound 3.16 µM, first compound 0.1 µM) of 38.2%, a viability, T/C (second compound 3.16 µM, first compound 0.316 µM) of 25.5% and a viability, T/C (second compound 3.16 µM, first compound 1 µM) of 14.6%. The viability, T/C (second compound 3.16 µM, first compound 3.16 µM) was 11.2%, the viability, T/C (second compound 3.16 µM, first compound 10 µM) was 7.69% and the viability, T/C (second compound 10 µM, first compound 0.0316 µM) was 42.4%. The viability, T/C (second compound 10 µM, first compound 0.1 µM) was 33.2%, the viability, T/C (second compound 10 µM, first compound 0.316 µM) was 19.4% and the viability, T/C (second compound 10 µM, first compound 1 µM) was 10.6%. The viability, T/C (second compound 10 µM, first compound 3.16 µM) was 8.49% and the viability, T/C (second compound 10 µM, first compound 10 µM) was 4.08%.
For `CC(=O)c1c(C)c2cnc(Nc3ccc(N4CCNCC4)cn3)nc2n(C2CCCC2)c1=O` + CCN1CCN(Cc2ccc(Nc3ncc(F)c(-c4cc(F)c5nc(C)n(C(C)C)c5c4)n3)nc2)CC1, the IC50 (curve of first compound, second compound 0.01 µM) was > 300 nM, the IC50 (curve of first compound, second compound 0.0316 µM) was > 300 nM and the IC50 [1] was > 300 nM. The IC50 [2] was > 300 nM, the IC50 [3] was > 300 nM and the viability, T/C (second compound 0.01 µM, first compound 0.000949 µM) was 93.2%. It also gave a viability, T/C (second compound 0.01 µM, first compound 0.003 µM) of 99.5%, a viability, T/C (second compound 0.01 µM, first compound 0.00949 µM) of 103% and a viability, T/C (second compound 0.01 µM, first compound 0.03 µM) of 104%. The viability, T/C (second compound 0.01 µM, first compound 0.0949 µM) was 97.4%, the viability, T/C (second compound 0.01 µM, first compound 0.3 µM) was 93.6% and the viability, T/C (second compound 0.0316 µM, first compound 0.000949 µM) was 101%. It also gave a viability, T/C (second compound 0.0316 µM, first compound 0.003 µM) of 95.4%, a viability, T/C (second compound 0.0316 µM, first compound 0.00949 µM) of 90.6% and a viability, T/C (second compound 0.0316 µM, first compound 0.03 µM) of 93.3%. It also gave a viability, T/C (second compound 0.0316 µM, first compound 0.0949 µM) of 93%, a viability, T/C (second compound 0.0316 µM, first compound 0.3 µM) of 94.1% and a viability, T/C (second compound 0.1 µM, first compound 0.000949 µM) of 93.9%. It also gave a viability, T/C (second compound 0.1 µM, first compound 0.003 µM) of 104%, a viability, T/C (second compound 0.1 µM, first compound 0.00949 µM) of 88.3% and a viability, T/C (second compound 0.1 µM, first compound 0.03 µM) of 99.3%. The viability, T/C (second compound 0.1 µM, first compound 0.0949 µM) was 92.8%, the viability, T/C (second compound 0.1 µM, first compound 0.3 µM) was 86.7% and the viability, T/C (second compound 0.316 µM, first compound 0.000949 µM) was 95%. It also gave a viability, T/C (second compound 0.316 µM, first compound 0.003 µM) of 90.9%, a viability, T/C (second compound 0.316 µM, first compound 0.00949 µM) of 96.6% and a viability, T/C (second compound 0.316 µM, first compound 0.03 µM) of 92.1%. For the same compound, the viability, T/C (second compound 0.316 µM, first compound 0.0949 µM) was 97%, the viability, T/C (second compound 0.316 µM, first compound 0.3 µM) was 85.5% and the viability, T/C (second compound 1 µM, first compound 0.000949 µM) was 82.7%. It also gave a viability, T/C (second compound 1 µM, first compound 0.003 µM) of 94.5%, a viability, T/C (second compound 1 µM, first compound 0.00949 µM) of 79.8% and a viability, T/C (second compound 1 µM, first compound 0.03 µM) of 79.8%. It also gave a viability, T/C (second compound 1 µM, first compound 0.0949 µM) of 87.1% and a viability, T/C (second compound 1 µM, first compound 0.3 µM) of 92.2%.

— PubChem BioAssay AID2060329 (Molecular Pharmacology Branch, DTP, NCI, 2025)
